Source: the NIST ThermoML archive (doi:10.1021/je060339m)

Settings: Liquid

CCCOC(C)=O [propyl ethanoate]
Settings	mass density [kg/m3]
298.15 K, 100 kPa	882
298.15 K, 1000 kPa	882.5
298.15 K, 2000 kPa	883.4
298.15 K, 3000 kPa	884.3
298.15 K, 3300 kPa	884.6
298.15 K, 5000 kPa	886.4
298.15 K, 10000 kPa	890.7
298.15 K, 15000 kPa	894.8
298.15 K, 20000 kPa	898.7
298.15 K, 25000 kPa	902.5
298.15 K, 30000 kPa	906.9
298.15 K, 35000 kPa	911.7
303.15 K, 100 kPa	876.2
303.15 K, 1000 kPa	876.8
303.15 K, 2000 kPa	877.7
303.15 K, 3000 kPa	878.8
303.15 K, 3300 kPa	879
303.15 K, 5000 kPa	880.8
303.15 K, 10000 kPa	885.3
303.15 K, 15000 kPa	889.5
303.15 K, 20000 kPa	893.5
303.15 K, 25000 kPa	897.4
303.15 K, 30000 kPa	902
303.15 K, 35000 kPa	906.9
308.15 K, 100 kPa	870.5
308.15 K, 1000 kPa	871.2
308.15 K, 2000 kPa	872.2
308.15 K, 3000 kPa	873.2
308.15 K, 3300 kPa	873.4
308.15 K, 5000 kPa	875.3
308.15 K, 10000 kPa	879.9
308.15 K, 15000 kPa	884.3
308.15 K, 20000 kPa	888.4
308.15 K, 25000 kPa	892.4
308.15 K, 30000 kPa	897.2
308.15 K, 35000 kPa	902.3
313.15 K, 100 kPa	864.9
313.15 K, 1000 kPa	865.5
313.15 K, 2000 kPa	866.6
313.15 K, 3000 kPa	867.6
313.15 K, 3300 kPa	867.9
313.15 K, 5000 kPa	869.9
313.15 K, 10000 kPa	874.7
313.15 K, 15000 kPa	879.2
313.15 K, 20000 kPa	883.5
313.15 K, 25000 kPa	887.6
313.15 K, 30000 kPa	892.6
313.15 K, 35000 kPa	897.7
318.15 K, 100 kPa	859.3
318.15 K, 1000 kPa	859.8
318.15 K, 2000 kPa	860.9
318.15 K, 3000 kPa	862.1
318.15 K, 3300 kPa	862.4
318.15 K, 5000 kPa	864.4
318.15 K, 10000 kPa	869.4
318.15 K, 15000 kPa	874.1
318.15 K, 20000 kPa	878.5
318.15 K, 25000 kPa	882.8
318.15 K, 30000 kPa	887.9
318.15 K, 35000 kPa	893.2
323.15 K, 100 kPa	853.6
323.15 K, 1000 kPa	854.8
323.15 K, 2000 kPa	855.8
323.15 K, 3000 kPa	856.9
323.15 K, 3300 kPa	857.1
323.15 K, 5000 kPa	859
323.15 K, 10000 kPa	864.1
323.15 K, 15000 kPa	869
323.15 K, 20000 kPa	873.5
323.15 K, 25000 kPa	877.9
323.15 K, 30000 kPa	883.2
323.15 K, 35000 kPa	888.8
328.15 K, 100 kPa	848
328.15 K, 1000 kPa	848.7
328.15 K, 2000 kPa	849.9
328.15 K, 3000 kPa	851
328.15 K, 3300 kPa	851.3
328.15 K, 5000 kPa	853.7
328.15 K, 10000 kPa	859
328.15 K, 15000 kPa	864
328.15 K, 20000 kPa	868.7
328.15 K, 25000 kPa	873.3
328.15 K, 30000 kPa	878.8
328.15 K, 35000 kPa	884.4
333.15 K, 100 kPa	842.5
333.15 K, 1000 kPa	843.6
333.15 K, 2000 kPa	844.8
333.15 K, 3000 kPa	845.9
333.15 K, 3300 kPa	846.2
333.15 K, 5000 kPa	848.3
333.15 K, 10000 kPa	853.9
333.15 K, 15000 kPa	859
333.15 K, 20000 kPa	863.9
333.15 K, 25000 kPa	868.6
333.15 K, 30000 kPa	874.3
333.15 K, 35000 kPa	880.1
338.15 K, 100 kPa	836.7
338.15 K, 1000 kPa	838
338.15 K, 2000 kPa	839.2
338.15 K, 3000 kPa	840.5
338.15 K, 3300 kPa	840.8
338.15 K, 5000 kPa	842.8
338.15 K, 10000 kPa	848.6
338.15 K, 15000 kPa	853.9
338.15 K, 20000 kPa	859
338.15 K, 25000 kPa	863.8
338.15 K, 30000 kPa	869.6
338.15 K, 35000 kPa	875.5
343.15 K, 100 kPa	831.2
343.15 K, 1000 kPa	832.3
343.15 K, 2000 kPa	833.7
343.15 K, 3000 kPa	834.9
343.15 K, 3300 kPa	835.3
343.15 K, 5000 kPa	837.6
343.15 K, 10000 kPa	843.6
343.15 K, 15000 kPa	849.1
343.15 K, 20000 kPa	854.3
343.15 K, 25000 kPa	859.2
343.15 K, 30000 kPa	865
343.15 K, 35000 kPa	871.2
348.15 K, 100 kPa	825.6
348.15 K, 1000 kPa	826.8
348.15 K, 2000 kPa	828.1
348.15 K, 3000 kPa	829.5
348.15 K, 3300 kPa	829.9
348.15 K, 5000 kPa	832.2
348.15 K, 10000 kPa	838.3
348.15 K, 15000 kPa	844.1
348.15 K, 20000 kPa	849.5
348.15 K, 25000 kPa	854.5
348.15 K, 30000 kPa	860.6
348.15 K, 35000 kPa	866.8
353.15 K, 100 kPa	820
353.15 K, 1000 kPa	821.2
353.15 K, 2000 kPa	822.6
353.15 K, 3000 kPa	824
353.15 K, 3300 kPa	824.4
353.15 K, 5000 kPa	826.9
353.15 K, 10000 kPa	833.3
353.15 K, 15000 kPa	838.8
353.15 K, 20000 kPa	844.8
353.15 K, 25000 kPa	850
353.15 K, 30000 kPa	856.4
353.15 K, 35000 kPa	862.7
358.15 K, 100 kPa	811.6
358.15 K, 1000 kPa	812.9
358.15 K, 2000 kPa	814.4
358.15 K, 3000 kPa	815.8
358.15 K, 3300 kPa	816.3
358.15 K, 5000 kPa	818.6
358.15 K, 10000 kPa	825.3
358.15 K, 15000 kPa	831.5
358.15 K, 20000 kPa	837.2
358.15 K, 25000 kPa	842.8
363.15 K, 100 kPa	804.8
363.15 K, 1000 kPa	806.9
363.15 K, 2000 kPa	808.4
363.15 K, 3000 kPa	810
363.15 K, 3300 kPa	810.4
363.15 K, 5000 kPa	812.9
363.15 K, 10000 kPa	819.9
363.15 K, 15000 kPa	826.2
363.15 K, 20000 kPa	832.1
363.15 K, 25000 kPa	837.7
363.15 K, 30000 kPa	844.4
368.15 K, 1000 kPa	801
368.15 K, 2000 kPa	802.7
368.15 K, 3000 kPa	804.3
368.15 K, 3300 kPa	804.8
368.15 K, 5000 kPa	807.4
368.15 K, 10000 kPa	814.6
368.15 K, 15000 kPa	821.2
368.15 K, 20000 kPa	827.3
368.15 K, 25000 kPa	833.1
373.15 K, 1000 kPa	795.5
373.15 K, 2000 kPa	797.2
373.15 K, 3000 kPa	798.9
373.15 K, 3300 kPa	799.5
373.15 K, 5000 kPa	802.3
373.15 K, 10000 kPa	809.8
373.15 K, 15000 kPa	816.6
373.15 K, 20000 kPa	822.9
373.15 K, 25000 kPa	828.9
378.15 K, 1000 kPa	789.4
378.15 K, 2000 kPa	791.3
378.15 K, 3000 kPa	793
378.15 K, 3300 kPa	793.6
378.15 K, 5000 kPa	796.3
378.15 K, 10000 kPa	803.3
378.15 K, 15000 kPa	811.3
378.15 K, 20000 kPa	817.7
378.15 K, 25000 kPa	824
378.15 K, 30000 kPa	831.2
383.15 K, 1000 kPa	783.6
383.15 K, 2000 kPa	785.5
383.15 K, 3000 kPa	787.3
383.15 K, 3300 kPa	788.2
383.15 K, 5000 kPa	791.2
383.15 K, 10000 kPa	799.2
383.15 K, 15000 kPa	806.6
383.15 K, 20000 kPa	813.2
383.15 K, 25000 kPa	819.7
388.15 K, 1000 kPa	777.9
388.15 K, 2000 kPa	779.8
388.15 K, 3000 kPa	781.6
388.15 K, 3300 kPa	782.1
388.15 K, 5000 kPa	785.4
388.15 K, 10000 kPa	793.8
388.15 K, 15000 kPa	801.5
388.15 K, 20000 kPa	808.5
388.15 K, 25000 kPa	815.2
388.15 K, 30000 kPa	823.2
393.15 K, 1000 kPa	771.8
393.15 K, 2000 kPa	773.9
393.15 K, 3000 kPa	775.9
393.15 K, 3300 kPa	776.4
393.15 K, 5000 kPa	779.7
393.15 K, 10000 kPa	788.6
393.15 K, 15000 kPa	796.5
393.15 K, 20000 kPa	803.8
393.15 K, 25000 kPa	810.7
